Data from publication PMC6534582 (Nature Communications, 2019).
Values belong to the molecule of their own block, whether it stands above or below them. No end group written: not given here.

Columns and labels:
MLL4-PHD6 = assay: 1H,15N HSQC of linked H4-G7-MLL4-PHD6 construct; type: binding, human
Procedure: (§1) The PHD6 domain of human MLL4 (aa 1503–1562) was cloned into a pCool vector. […] The human MLL3 PHD7 domain (aa 1083–1143) was cloned into a pGEX-6p vector. All constructs were expressed in Rosetta2 (DE3) pLysS cells. Protein production was induced with 0.5 mM IPTG overnight at 16̊ °C in Luria broth (LB) or minimal media (M9) supplemented with ^15NH4Cl and 0.06 mM ZnCl2 or ^15NH4Cl, ^13C-glucose, and 0.06 mM ZnCl2. The GST-tagged PHD proteins were purified on glutathione Sepharose 4B beads (GE Healthcare) in 50 mM Tris-HCl (pH 7.5) buffer, supplemented with 250 mM NaCl and 2 mM dithiothreitol (DTT). The GST tag was cleaved with Thrombin or TEV protease overnight at 4 °̊C. Unlabeled proteins were further purified by size exclusion chromatography and concentrated in Millipore concentrators. All mutants were generated by site-directed mutagenesis using the Stratagene QuikChange mutagenesis protocol, grown, and purified as WT proteins.
(§2) For NMR titration experiments, ^1H,^15N HSQC spectra of 0.15 mM uniformly ^15N-labeled WT or mutated MLL4-PHD6 were recorded while peptides (synthesized by SynPeptide) were added stepwise. All experiments were carried out in phosphate-buffered saline buffer (pH 6.5).

[1] = test system: MLL4-PHD6 (aa 1503–1562), wild-type; assay: 1H,15N HSQC NMR titration of WT MLL4-PHD6; type: binding, human; conditions: for chemical shift perturbations (CSPs): 1H,15N HSQC titration, 0.15 mM 15N-labeled MLL4-PHD6, PBS pH 6.5, 298 K
Procedure: as §1
NMR samples for structure determination were prepared in 20 mM Tris-HCl (pH 7.0) buffer, supplemented with 100 mM NaCl, 5 mM DTT, and 8% D2O. […] 3D ^15N-/^13C-filtered ^13C- and ^15N-edited NOESY-HSQC spectra (mixing time of 150 ms) were collected to obtain intermolecular distance restraints.
as §2

[2] = test system: Jmjd3 mRNA in Mof^f/f;Cre-ER brown preadipocytes; assay: qRT-PCR of Jmjd3 mRNA (control gene); type: cell-based, mouse
Procedure: (§3) Mof^f/f mice were crossed with Cre-ER (Jackson no. 008463) to generate Mof^f/f;Cre-ER mice[10]. Primary brown preadipocytes were isolated from interscapular brown adipose tissue of newborn (P0) Mof^f/f;Cre-ER pups and immortalized by SV40T[38]. All mouse experiments were performed in accordance with the NIH Guide for the Care and Use of Laboratory Animals and approved by the Animal Care and Use Committee of NIDDK, NIH. For rescue experiment by ectopic expression of rat MOF, immortalized Mof^f/f;Cre-ER preadipocytes stably expressing WT or K274R MOF were established using lentivirus-mediated gene transfer. Briefly, 293FT lentiviral packaging cells were transfected with pLenti-CMV plasmids expressing MYC-tagged WT or K274R rat MOF. Preadipocytes were infected with those lentivirus-containing media, followed by puromycin selection for two passages. Those expressing MYC-tagged rat MOF were confirmed by western blot.
(§4) Western blot of histone modifications using acid extracts or of nuclear proteins using nuclear extracts were done as described[45],[46]. Total RNA was extracted using TRIzol (Invitrogen) and reverse transcribed using the ProtoScript II First-Strand cDNA Synthesis Kit (NEB), following the manufacturers’ instructions. qRT-PCR was done using the following SYBR green primers: Mof (forward, 5’–[…]–3’, and reverse, 5’–[…]–3’). qPCR was done using Luna® Universal qPCR Master Mix according to the manufacturers’ instructions (NEB). To detect truncated Mof transcripts after 4-OHT treatment (2 µM), RT-PCR was performed as described.

[3] = test system: Mof mRNA in Mof^f/f;Cre-ER brown preadipocytes; assay: qRT-PCR of Mof mRNA; type: cell-based, mouse
Procedure: as §3, §4

[4] = test system: Mof^f/f;Cre-ER brown preadipocytes; assay: Growth rate of Mof KO cells; type: cell-based, mouse; conditions: for growth rate of Mof KO cells: 4OHT
Procedure: as §3

[5] = biological target: T1, PHD6 finger of human MLL4 (aa 1503-1562) (human, UniProt O14686 1503-1562); assay: NMR titration; 1H,15N HSQC spectra of 0.15 mM uniformly 15N-labelled MLL4-PHD6 while peptide was added stepwise up to a protein:peptide molar ratio of 1:5; phosphate-buffered saline pH 6.5; 298 K; conditions: both partners purified
T1 construct: PHD6 finger of human MLL4 (KMT2D), aa 1503-1562, cloned into a pCool vector; Uniformly 15N-labelled for the titrations at 0.15 mM; also called MLL4-PHD6; MLL4-PHD6 1503-1562; source: Rosetta2 (DE3) pLysS cells, purified (glutathione Sepharose 4B; GST tag cleaved)
T1 sequence (O14686 1503-1562): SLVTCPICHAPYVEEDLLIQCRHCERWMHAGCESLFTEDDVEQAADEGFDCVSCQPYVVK

[6] = biological target: T2, PHD6 finger of MLL4 (MLL4-PHD6, aa 1503–1562), wild type (human, UniProt O14686 1503-1562); assay: NMR titration; 1H,15N HSQC of 0.15 mM uniformly 15N-labeled PHD finger (WT or mutated), peptides added stepwise; phosphate-buffered saline pH 6.5; 298 K; conditions: both partners purified
T2 construct: human MLL4 (KMT2D), PHD6 finger, aa 1503-1562; cloned into a pCool vector; 15N- or 13C/15N-labelled for NMR; also called MLL4-PHD6_(1503–1562); PHD6 domain of human MLL4; source: E. coli Rosetta2 (DE3) pLysS, purified (glutathione Sepharose, GST cleaved, SEC for unlabeled protein)
T2 sequence (O14686 1503-1562): as above

[7] = biological target: T3, MLL4-PHD6 part of the linked H4-G7-MLL4-PHD6 construct (human, UniProt O14686 1503-1562); assay: NMR, 1H,15N HSQC spectra of a linked construct compared with free and peptide-bound PHD6; H4 (11–23) joined to MLL4-PHD6 on one chain through a hepta-glycine linker; wild type and H4 mutants; conditions: both partners purified
T3 construct: human MLL4 (KMT2D), PHD6 finger; aa 1503-1562 by the methods, 1503-1560 by the results; in the assay joined at its N-terminus through GGGGGGG to H4 residues 11-23 (m15 or its mutants) on one chain; also called H4_(11–23)-G7-PHD6 (PHD6 part); source: E. coli Rosetta2 (DE3) pLysS, purified
T3 sequence (O14686 1503-1562): as above

[8] = biological target: T2, PHD6 finger of MLL4 (MLL4-PHD6, aa …); assay: NMR structure; solution structure; 2.5 mM 13C/15N-labeled MLL4-PHD6 and 7.5 mM H4K16ac (11–21) peptide; 20 mM Tris-HCl pH 7.0, 100 mM NaCl, 5 mM DTT, 8% D2O; 298 K; conditions: both partners purified
[9] = biological target: T1, PHD6 finger of human MLL4 (aa 1503-1562); assay: NMR titration; 1H,15N HSQC spectra of 2.5 mM 13C/15N-labelled MLL4-PHD6 upon titration with H4K16ac (11-21) peptide at protein:ligand 1:0, 1:2, 1:3; 20 mM Tris-HCl pH 7.0, 100 mM NaCl, 5 mM DTT, 8% D2O; 298 K; conditions: both partners purified
[10] = 4OHT-treated, technical replicate 1
[11] = 4OHT-treated, technical replicate 2
[12] = after two rounds of 4OHT treatment

Molecule: H4_1–9: H4 peptide (residues 1–9 of H4) (SGRGKGGKG)
chemical shift perturbations (CSPs) [1]: no chemical shift perturbations

Molecule: H4_8–25: peptide encompassing residues 8–25 of H4 (KGLGKGGAKRHRKVLRDN)
chemical shift perturbations (CSPs) [1]: CSPs similar in directions to CSPs induced by the longer H4_1–23 peptide

Molecule: H4_12–23: peptide encompassing residues 12–23 of H4 (KGGAKRHRKVLR)
chemical shift perturbations (CSPs) [1]: CSPs similar in directions to CSPs induced by the longer H4_1–23 peptide

Molecule: CC/C(=C(\c1ccc(O)cc1)c1ccc(OCCN(C)C)cc1)c1ccccc1 [4OHT, 4-hydroxytamoxifen]
relative Jmjd3 mRNA level ([2]; 4OHT-treated Mof^f/f;Cre-ER preadipocytes, average of two technical replicates, Mock average 1.00005, STDEV in own column): 0.8326
relative Jmjd3 mRNA level [2, 10]: 0.841
relative Jmjd3 mRNA level [2, 11]: 0.8241
mRNA of control gene Jmjd3 [2, 12]: unaffected
relative Mof mRNA level ([3]; 4OHT-treated Mof^f/f;Cre-ER preadipocytes, average of two technical replicates, single experiment, Mock average 1.00268, STDEV in own column): 0.1967
relative Mof mRNA level [3, 10]: 0.2148
relative Mof mRNA level [3, 11]: 0.1786
mRNA level of Mof [3, 12]: significantly decreased
growth rate of Mof KO cells ([4]; D1, average of two replicates (D0 = 1; Mock 3.715)): 2.81
growth rate of Mof KO cells ([4]; D1, replicate 1 (Mock 3.89)): 2.98
growth rate of Mof KO cells ([4]; D1, replicate 2 (Mock 3.54)): 2.64
growth rate of Mof KO cells ([4]; D2, average of two replicates (D0 = 1; Mock 6.365)): 4.725
growth rate of Mof KO cells ([4]; D2, replicate 1 (Mock 5.82)): 4.59
growth rate of Mof KO cells ([4]; D2, replicate 2 (Mock 6.91)): 4.86
growth rate of Mof KO cells ([4]; D3, average of two replicates (D0 = 1; Mock 10.695)): 7.02
growth rate of Mof KO cells ([4]; D3, replicate 1 (Mock 9.81)): 6.59
growth rate of Mof KO cells ([4]; D3, replicate 2 (Mock 11.58)): 7.45
growth rate of Mof KO cells ([4]; D4, average of two replicates (D0 = 1; Mock 17.965)): 12
growth rate of Mof KO cells ([4]; D4, replicate 1 (Mock 16.98)): 12.54
growth rate of Mof KO cells ([4]; D4, replicate 2 (Mock 18.95)): 11.46
growth rate of Mof KO cells ([4]; D5, average of two replicates (D0 = 1; Mock 25.18)): 15.215
growth rate of Mof KO cells ([4]; D5, replicate 1 (Mock 26.41)): 14.49
growth rate of Mof KO cells ([4]; D5, replicate 2 (Mock 23.95)): 15.94
growth, 4OHT average relative to Mock ([4]; D4): 66.7965
growth, 4OHT average relative to Mock ([4]; D5): 60.4249

Molecule: H4K16ac (11–21): H4K16ac peptide (residues 11–21) used for NMR structure; 15N/13C-labeled form synthesized by Bio-Synthesis
saturation of MLL4-PHD6 by 3-fold excess of peptide ([1]; 7.5 mM H4K16ac (11–21) with 2.5 mM 13C/15N-labeled MLL4-PHD6, 20 mM Tris-HCl pH 7.0, 100 mM NaCl, 5 mM DTT, 8% D2O, 298 K, 1H,15N HSQC and 1H,13C HSQC): almost saturated

Molecule: CC(=O)NCCCC[C@H](N)C(=O)O [Kac]
chemical shift perturbations (CSPs) [1]: failed to induce CSPs

B3: H4 (residues 11–23) part of the linked H4-G7-MLL4-PHD6 construct, wild type (domain or fragment, UniProt P62805 12-24, looked up)
chain: GKGGAKRHRKVLR
notes: histone H4, residues 11-23; in the assay this stretch stood on ONE chain with m16: H4 11-23, hepta-glycine linker GGGGGGG, MLL4-PHD6; cloned into pDEST-15; also called H4_(11–23)-G7-PHD6 (H4 part); linked H4-MLL4-PHD6 construct; source: E. coli Rosetta2 (DE3) pLysS, purified
binding result [7]: binds

Further lines, with some results ahead:

binding of the H4 region in linked construct (MLL4-PHD6; H4 aa 11–23, hepta-glycine linker, MLL4-PHD6, no mutation): tightly bound to the protein
Molecule: linked H4-MLL4-PHD6 construct: aa 11–23 of H4, hepta-glycine (GGGGGGG) linker, aa 1503–1562 of MLL4-PHD6
spectral changes on mutation (MLL4-PHD6; H4K12 mutated to alanine in linked construct): only small spectral changes
spectral changes on mutation (MLL4-PHD6; H4K23 mutated to alanine in linked construct): only small spectral changes
complex formation on mutation (MLL4-PHD6; K16 and R17 of H4 mutated to alanine in linked construct): disrupted formation of the complex

binding result [5]: binds
B1: histone H4 (8-25) peptide (peptide, UniProt P62805 9-26, looked up)
peptide: KGLGKGGAKRHRKVLRDN
notes: histone H4, residues 8-25, unmodified; source: synthetic peptide (SynPeptide)

binding result [6]: binds
B2: histone H4 peptide, residues 12–23 (peptide, UniProt P62805 13-24, looked up)
peptide: KGGAKRHRKVLR
notes: histone H4, residues 12-23; also called H4_(12–23); source: synthetic peptide (SynPeptide)

binding result [7]: binds
B4: H4 (residues 11–23) K12A part of the linked H4-G7-MLL4-PHD6 construct (domain or fragment, UniProt P62805 12-24, looked up)
chain: GAGGAKRHRKVLR
notes: histone H4, residues 11-23, K12A; on one chain with m16 through a GGGGGGG linker; also called H4K12 to alanine in the linked construct; source: E. coli Rosetta2 (DE3) pLysS, purified as WT protein

binding result [8]: binds
B5: histone H4K16ac peptide, residues 11–21 (peptide, UniProt P62805 12-22, looked up)
peptide: GKGGAK(Ac)RHRKV
notes: histone H4, residues 11-21, acetylated at K16; a 15N/13C-labelled copy (Bio-Synthesis) was used to validate assignments; in the structure calculation only G13GAKacRH18 was used, with N-terminal acetyl and C-terminal N-Me amide caps; also called H4K16ac (11–21) peptide; source: synthetic peptide

binding result [9]: binds
B6: histone H4K16ac (11-21) peptide (peptide, UniProt P62805 12-22, looked up)
peptide: GKGGAK(Ac)RHRKV
notes: histone H4, residues 11-21, acetylated at K16; source: synthetic peptide

binding result [6]: binds
B7: histone H4 peptide, residues 8–25 (peptide, UniProt P62805 9-26, looked up)
peptide: KGLGKGGAKRHRKVLRDN
notes: histone H4, residues 8-25; source: synthetic peptide (SynPeptide)
